{"source": "paper PMC9977398", "about": "“Next-generation membrane-active glycopeptide antibiotics that also inhibit bacterial cell division” (Chemical Science, 2023)", "key": {"B. subtilis": {"system": "B. subtilis", "assay": "BacLight assay (pore formation assay)", "assay_type": "cell-based", "settings": "treatment at PEC", "from_the_text": "To examine if the compounds form pores on the membrane, a mixture of the fluorescent dyes SYTO 9 and PI was used. While SYTO 9 penetrates both intact and permeabilized cells staining them green, PI is unable to cross the intact membrane and stains only permeabilized or dead cells red. Membrane-disrupting antibiotics such as nisin are known to form pores in the membrane is stained by both SYTO 9 and PI (Fig. 4D). […] Around 20% of the cells visualized post-treatment with both compounds were stained by PI and therefore permeabilized. […]\nand the untreated control were carefully removed from the well, washed with 0.9 % saline, and placed on glass slides. The biofilms were then stained with 10 μL of SYTO9 (60μM) and imaged using a Zeiss 510 Meta confocal laser-scanning microscope. The orthogonal projections of the images were processed with LSM 5 Image examiner. […]\nOvernight cultures of B. subtilis 168 were grown in 50 mL flasks in 5 mL BMM media. […] The MIC was determined as the lowest concentration at which no visible bacterial OD […]\nOvernight cultures of B. subtilis 168 were grown in 50 mL flasks with 10 mL of media. […] The O.D. of the solutions are recorded every 30 minutes. […]\nresuspended in prewarmed BMM media. […] The fluorescence in the GFP and Texas red channels was then observed under the microscope. […]"}, "[1]": {"system": "B. subtilis 1981 GFP-MinD", "assay": "GFP-MinD localization", "assay_type": "cell-based", "settings": "treatment at the PEC, 15 min", "from_the_text": "MinD is a peripheral membrane protein that localizes at the cell poles and is part of the cell division regulation machinery. It has been reported that treatment with membrane-depolarizing agents like valinomycin results in the delocalization of the protein which appears in irregularly distributed spots throughout the cell. Since the compounds depolarise the bacterial membrane, their effect on the localization of the GFP-tagged MinD protein of B. subtilis was investigated. […]\nresuspended in prewarmed BMM media. 1:1 BAC light dye was then added to the bacterial suspension and incubated for 5 minutes. The fluorescence in the GFP and Texas red channels was then observed under the microscope. The experiments were performed three times independently and the images are representative of results from three independent experiments.\nB. subtilis 1981 GFP-MinD was cultured overnight in BMM.8 Cells were then inoculated in xylose containing BMM instead of glucose to an OD500 of 0.1 to induce expression of the GFP-MinD fusion protein. […]\nAbout 6 μl of sample was immobilized on 1% agarose pad . DIC and fluorescence images were obtained at different time intervals using Nikon Eclipse Ti Microscope equipped with Nikon DS-U3 camera through Plan Apo 100×/1.40 oil objective. […]"}, "MRSA": {"system": "MRSA", "assay": "Frequency of resistance", "assay_type": "cell-based, S. aureus", "from_the_text": "Having observed the multiple mechanisms of VanQAmC10, the potential as a preclinical candidate was examined. […] The frequency of resistance for both vancomycin and VanQAmC10 against MRSA was <10^−8 indicating the absence of spontaneous mutants."}, "VRSA": {"system": "VRSA", "assay": "Time-kill kinetics against VRSA", "assay_type": "cell-based, S. aureus"}}}
{"smiles": "CNC(CC(C)C)C(=O)NC1C(=O)NC(CC(N)=O)C(=O)NC2C(=O)NC3C(=O)NC(C(=O)NC(C(=O)NCCC[N+](C)(C)Cc4ccc(-c5ccccc5)cc4)c4cc(O)cc(O)c4-c4cc3ccc4O)C(O)c3ccc(c(Cl)c3)Oc3cc2cc(c3OC2OC(CO)C(O)C(O)C2OC2CC(C)(N)C(O)C(C)O2)Oc2ccc(cc2Cl)C1O", "note": "(stereo not shown) [VanQbiph (4)]", "values": [{"measurement": "pore formation (co-staining SYTO 9 and PI)", "setting": "B. subtilis", "result": "did not co-stain cells with both the dyes"}, {"measurement": "localization of GFP-MinD", "setting": "[1]", "result": "irregular distribution of GFP-labelled MinD across the cells"}]}
{"smiles": "CN[C@H](CC(C)C)C(=O)N[C@H]1C(=O)N[C@@H](CC(N)=O)C(=O)N[C@H]2C(=O)N[C@H]3C(=O)N[C@H](C(=O)N[C@H](C(=O)O)c4cc(O)cc(O)c4-c4cc3ccc4O)[C@H](O)c3ccc(c(Cl)c3)Oc3cc2cc(c3O[C@@H]2O[C@H](CO)[C@@H](O)[C@H](O)[C@H]2O[C@H]2C[C@](C)(N)[C@H](O)[C@H](C)O2)Oc2ccc(cc2Cl)[C@H]1O", "note": "[Vancomycin, reference compound]", "values": [{"measurement": "frequency of resistance", "setting": "MRSA", "result": "< 10^−8"}, {"measurement": "effect on growth of VRSA", "setting": "VRSA; 20 μM (sub-MIC)", "result": "initial growth inhibitory effect, followed by resumption of bacterial growth"}]}
{"smiles": "CCCCCCCCCCNC(=O)C[N+](C)(C)CCCNC(=O)C1NC(=O)C2NC(=O)C(NC(=O)C3NC(=O)C(CC(N)=O)NC(=O)C(NC(=O)C(CC(C)C)NC)C(O)c4ccc(c(Cl)c4)Oc4cc3cc(c4OC3OC(CO)C(O)C(O)C3OC3CC(C)(N)C(O)C(C)O3)Oc3ccc(cc3Cl)C2O)c2ccc(O)c(c2)-c2c(O)cc(O)cc21", "note": "(stereo not shown) [VanQAmC10 (8)]", "values": [{"measurement": "pore formation (co-staining SYTO 9 and PI)", "setting": "B. subtilis", "result": "did not co-stain cells with both the dyes"}, {"measurement": "localization of GFP-MinD", "setting": "[1]", "result": "irregular distribution of GFP-labelled MinD across the cells"}, {"measurement": "frequency of resistance", "setting": "MRSA", "result": "< 10^−8"}, {"measurement": "increase in bacterial titer between 6 h and 24 h", "setting": "VRSA; VRSA, 2×MIC, after initial reduction", "result": 1, "unit": "log CFU mL^−1"}, {"measurement": "time to complete eradication", "setting": "VRSA; VRSA, 6×MIC", "result": 24, "unit": "h"}, {"measurement": "reduction of bacterial titer", "setting": "VRSA; VRSA, at MIC, 24 h", "result": 1.9, "unit": "log CFU mL^−1"}]}
